{"source": "patent US20230157996A1", "about": "“SMALL-MOLECULE INHIBITOR TARGETING EB VIRUS NUCLEAR ANTIGEN PROTEIN, PREPARATION METHOD AND USE THEREOF” (priority 2020, published 2023)"}
{"tested_on": "C666-1 cells", "assay": "C666-1 cell viability single concentration (50 μM) inhibition rate (Resazurin)", "assay_type": "cell-based", "conditions": "Homo sapiens, C6661, 72 h, 50 μM compound, 72 hours, C666-1 cells; read-out: C666-1 cell viability single concentration (50 μM) inhibition rate, Ratio* (Inh %)", "method": "In order to assess the effect of the EBNA1 inhibitor at the cellular level, the cell proliferation inhibition rate was tested, and the inhibition rate of inhibitor at a specific concentration on the proliferation of Epstein-Barr virus positive cell line C666-1 was detected.\nIn the test, 100 μL C666-1 cells were inoculated in a transparent 96-well plate, and each well contained 5×10^3 cells. After the cells were cultured in an incubator with 5% carbon dioxide at 37° C. for 24 hours, 10 μL compound at a concentration of 500 μmol/L was added into the cells, so that the final concentration of the compound was 50 μmol/L. Two replicate wells were set for each compound, the wells treated with DMSO were set as control wells (Ctrl), and the wells with cell culture medium only were set as blank wells (blank), and they were treated in the incubator with carbon dioxide at 37° C. for 72 hours. The cell viability was assessed using a redox indicator Resazurin. Specifically, 10 μL Resazurin at a concentration of 600 umol/L was added into each well, and incubated at 37° C. for 3 hours, and a Tecan microplate reader was used to detect the fluorescence signal at an excitation wavelength of 560 nm and an emission wavelength of 590 nm. The formula inh %=1−(F−Fblank)/(FCtrl−Fblank)×100% (where, F is the fluorescence intensity of the compound-added wells, FCtrl and Fblank are the readings of the control wells and blank wells, respectively) was used to calculate the inhibition rate of the compound on the proliferation of C666-1 cells, so as to assess the activity of the compound on Epstein-Barr virus positive cells.", "units": {"inhibition at 50 µM": "%"}}
{"smiles": "COc1ccc(C(OC(C)=O)C23CC(c4cccc(C(=O)O)c4)(C2)C3)cc1", "note": "(stereo not shown) [Compound 1, 3-(3-(acetoxyl(4-methoxyphenyl)methyl)bicyclo[1. 1.1]pentan-1-yl)benzoic acid]", "inhibition at 50 µM": "< 10"}
{"smiles": "CC(=O)OC(c1ccc(C(F)(F)F)nc1)C12CC(c3cccc(C(=O)O)c3)(C1)C2", "note": "(stereo not shown) [Compound 2, 3-(3-(acetoxyl(6-(trifluoromethyl)pyridin-3-yl)methyl)bicyclo[1.1.1]pentan-1-yl)benzoic acid]", "inhibition at 50 µM": "< 10"}
{"smiles": "O=C(O)c1cccc(C23CC(C(O)c4ccc(C(F)(F)F)nc4)(C2)C3)c1", "note": "(stereo not shown) [Compound 3, 3-(3-(hydroxyl(6-(trifluoromethyl)pyridin-3-yl)methyl)bicyclo[1.1.1]pentan-1-yl)benzoic acid]", "inhibition at 50 µM": "< 10"}
{"smiles": "O=C(O)c1cccc(C23CC(c4ccccc4)(C2)C3)c1", "note": "[Compound 4, 3-(3-phenylbicyclo[1.1.1]pentan-1-yl)benzoic acid]", "inhibition at 50 µM": "< 10"}
{"smiles": "COC(=O)c1cccc(C23CC(c4ccccc4)(C2)C3)c1-n1cccc1", "note": "[Compound 5, Methyl 3-(3-phenylbicyclo[1.1.1]pentan-1-yl)-2-(1H-pyrrol-1-yl)benzoate]", "inhibition at 50 µM": "< 10"}
{"smiles": "O=C(O)c1cccc(C23CC(c4ccccc4)(C2)C3)c1-n1cccc1", "note": "[Compound 6, 3-(3-phenylbicyclo[1.1.1]pentan-1-yl)-2-(1H-pyrrol-1-yl)benzoic acid]", "inhibition at 50 µM": "< 10"}
{"smiles": "COC(=O)c1cccc(C23CC(c4ccc(OC)cc4)(C2)C3)c1-n1cccc1", "note": "[Compound 7, Methyl 3-(3-(4-methoxyphenyl)bicyclo[1.1.1]pentan-1-yl)-2-(1H-pyrrol-1-yl)benzoate]", "inhibition at 50 µM": "< 10"}
{"smiles": "COc1ccc(C23CC(c4cccc(C(=O)O)c4-n4cccc4)(C2)C3)cc1", "note": "[Compound 8, 3-(3-(4-methoxyphenyl)bicyclo[1.1.1]pentan-1-yl)-2-(1H-pyrrol-1-yl)benzoic acid]", "inhibition at 50 µM": "< 10"}
{"smiles": "COC(=O)c1cccc(N2CC3(CN(c4ccccc4)C3)C2)c1N", "note": "[Compound 9, Methyl 2-amino-3-(6-phenyl-2,6-diazaspiro[3.3]heptan-2-yl)benzoate]", "inhibition at 50 µM": "10 to 30"}
{"smiles": "Nc1c(C(=O)O)cccc1N1CC2(CN(c3ccccc3)C2)C1", "note": "[Compound 10, 2-amino-3-(6-phenyl-2,6-diazaspiro[3.3]heptan-2-yl)benzoic acid]", "inhibition at 50 µM": "< 10"}
{"smiles": "O=C(O)c1cccc(N2CC3(CN(c4ccccc4)C3)C2)c1-n1cccc1", "note": "[Compound 11, 3-(6-phenyl-2,6-diazaspiro[3.3]heptan-2-yl)-2-(1H-pyrrol-1-yl)benzoic acid]", "inhibition at 50 µM": "< 10"}
{"smiles": "Nc1ccccc1N1CC2(C1)CN(c1cccc(C(=O)O)c1N)C2", "note": "[Compound 12, 2-amino-3-(6-(2-aminophenyl)-2,6-diazaspiro[3.3]heptan-2-yl)benzoic acid]", "inhibition at 50 µM": "< 10"}
{"smiles": "COC(=O)c1cccc(N2CC3(CN(c4ccc(N)cc4)C3)C2)c1N", "note": "[Compound 13, Methyl 2-amino-3-(6-(4-aminophenyl)-2,6-diazaspiro[3.3]heptan-2-yl)benzoate]", "inhibition at 50 µM": "> 50"}
{"smiles": "Nc1ccc(N2CC3(C2)CN(c2cccc(C(=O)O)c2N)C3)cc1", "note": "[Compound 14, 2-amino-3-(6-(4-aminophenyl)-2,6-diazaspiro[3.3]heptan-2-yl)benzoic acid]", "inhibition at 50 µM": "< 10"}
{"smiles": "COC(=O)c1cccc(N2CC3(C2)CN(c2cccc(C(=O)OC)c2N)C3)c1", "note": "[Compound 15, Methyl 2-amino-3-(6-(3-(methoxycarbonyl)phenyl)-2,6-diazaspiro[3.3]heptan-2-yl)benzoate]", "inhibition at 50 µM": "< 10"}
{"smiles": "Nc1c(C(=O)O)cccc1N1CC2(CN(c3cccc(C(=O)O)c3)C2)C1", "note": "[Compound 16, 2-amino-3-(6-(3-carboxylphenyl)-2,6-diazaspiro[3.3]heptan-2-yl)benzoic acid]", "inhibition at 50 µM": "< 10"}
{"smiles": "COC(=O)c1cccc(N2CC3(C2)CN(c2cccc(C(=O)OC)c2-n2cccc2)C3)c1", "note": "[Compound 17, Methyl 3-(6-(3-(methoxycarbonyl)phenyl)-2,6-diazaspiro[3.3]heptan-2-yl)-2-(1H-pyrrol-1-yl)benzoate]", "inhibition at 50 µM": "10 to 30"}
{"smiles": "O=C(O)c1cccc(N2CC3(C2)CN(c2cccc(C(=O)O)c2-n2cccc2)C3)c1", "note": "[Compound 18, 3-(6-(3-carboxylphenyl)-2,6-diazaspiro[3.3]heptan-2-yl)-2-(1H-pyrrol-1-yl)benzoic acid]", "inhibition at 50 µM": "< 10"}
{"smiles": "COC(=O)c1cccc(N2CC3(CN(c4ccccc4N)C3)C2)c1-n1cccc1", "note": "[Compound 19, Methyl 3-(6-(2-aminophenyl)-2,6-diazaspiro[3.3]heptan-2-yl)-2-(1H-pyrrol-1-yl)benzoate]", "inhibition at 50 µM": "> 50"}
{"smiles": "Nc1ccccc1N1CC2(C1)CN(c1cccc(C(=O)O)c1-n1cccc1)C2", "note": "[Compound 20, 3-(6-(2-aminophenyl)-2,6-diazaspiro[3.3]heptan-2-yl)-2-(1H-pyrrol-1-yl)benzoic acid]", "inhibition at 50 µM": "< 10"}
{"smiles": "COC(=O)c1cccc(N2CC3(CN(c4ccccc4[N+](=O)[O-])C3)C2)c1-n1cccc1", "note": "[Compound 21, Methyl 3-(6-(2-nitrophenyl)-2,6-diazaspiro[3.3]heptan-2-yl)-2-(1H-pyrrol-1-yl)benzoate]", "inhibition at 50 µM": "10 to 30"}
{"smiles": "O=C(O)c1cccc(N2CC3(CN(c4ccccc4[N+](=O)[O-])C3)C2)c1-n1cccc1", "note": "[Compound 22, 3-(6-(2-nitrophenyl)-2,6-diazaspiro[3.3]heptan-2-yl)-2-(1H-pyrrol-1-yl)benzoic acid]", "inhibition at 50 µM": "< 10"}
{"smiles": "COC(=O)c1ccc(N2CC3(C2)CN(c2cccc(C(=O)OC)c2-n2cccc2)C3)cc1", "note": "[Compound 23, Methyl 3-(6-(4-(methoxycarbonyl)phenyl)-2,6-diazaspiro[3.3]heptan-2-yl)-2-(1H-pyrrol-1-yl)benzoate]", "inhibition at 50 µM": "< 10"}
{"smiles": "O=C(O)c1ccc(N2CC3(C2)CN(c2cccc(C(=O)O)c2-n2cccc2)C3)cc1", "note": "[Compound 24, 3-(6-(4-carboxylphenyl)-2,6-diazaspiro[3.3]heptan-2-yl)-2-(1H-pyrrol-1-yl)benzoic acid]", "inhibition at 50 µM": "< 10"}
{"smiles": "COC(=O)c1cccc(N2CC3(CN(c4cccc([N+](=O)[O-])c4)C3)C2)c1[N+](=O)[O-]", "note": "[Compound 25, Methyl 3-(6-(3-nitrophenyl)-2,6-diazaspiro[3.3]heptan-2-yl)-2-nitrobenzoate]", "inhibition at 50 µM": "10 to 30"}
{"smiles": "O=C(O)c1cccc(N2CC3(CN(c4cccc([N+](=O)[O-])c4)C3)C2)c1[N+](=O)[O-]", "note": "[Compound 26, 3-(6-(3-nitrophenyl)-2,6-diazaspiro[3.3]heptan-2-yl)-2-nitrobenzoic acid]", "inhibition at 50 µM": "< 10"}
{"smiles": "COC(=O)c1cccc(N2CC3(CN(c4cccc(NS(C)(=O)=O)c4)C3)C2)c1[N+](=O)[O-]", "note": "[Compound 27, Methyl 3-(6-(3-(methylsulfonamido)phenyl)-2,6-diazaspiro[3.3]heptan-2-yl)-2-nitrobenzoate]", "inhibition at 50 µM": "< 10"}
{"smiles": "CS(=O)(=O)Nc1cccc(N2CC3(C2)CN(c2cccc(C(=O)O)c2[N+](=O)[O-])C3)c1", "note": "[Compound 28, 3-(6-(3-(methylsulfonamido)phenyl)-2,6-diazaspiro[3.3]heptan-2-yl)-2-nitrobenzoic acid]", "inhibition at 50 µM": "< 10"}
{"smiles": "COC(=O)c1cccc(N2CC3(CN(c4cccc(NC(C)=O)c4)C3)C2)c1N", "note": "[Compound 29, Methyl 3-(6-(3-acetylaminophenyl)-2,6-diazaspiro[3.3]heptan-2-yl)-2-aminobenzoate]", "inhibition at 50 µM": "10 to 30"}
{"smiles": "CC(=O)Nc1cccc(N2CC3(C2)CN(c2cccc(C(=O)O)c2N)C3)c1", "note": "[Compound 30, 3-(6-(3-acetylaminophenyl)-2,6-diazaspiro[3.3]heptan-2-yl)-2-aminobenzoic acid]", "inhibition at 50 µM": "< 10"}
{"smiles": "COC(=O)c1cccc(N2CC3(CN(c4cccc(NS(=O)(=O)C5CC5)c4)C3)C2)c1N", "note": "[Compound 31, Methyl 2-amino-3-(6-(3-(cyclopropylsulfonamido)phenyl)-2,6-diazaspiro[3.3]heptan-2-yl)benzoate]", "inhibition at 50 µM": "10 to 30"}
{"smiles": "Nc1c(C(=O)O)cccc1N1CC2(CN(c3cccc(NS(=O)(=O)C4CC4)c3)C2)C1", "note": "[Compound 32, 2-amino-3-(6-(3-(cyclopropylsulfonamido)phenyl)-2,6-diazaspiro[3.3]heptan-2-yl)benzoic acid]", "inhibition at 50 µM": "< 10"}
{"smiles": "COC(=O)c1cccc(N2CC3(CN(c4cccc(N)c4)C3)C2)c1N", "note": "[Compound 33, Methyl 2-amino-3-(6-(3-aminophenyl)-2,6-diazaspiro[3.3]heptan-2-yl)benzoate]", "inhibition at 50 µM": "10 to 30"}
{"smiles": "Nc1cccc(N2CC3(C2)CN(c2cccc(C(=O)O)c2N)C3)c1", "note": "[Compound 34, 2-amino-3-(6-(3aminophenyl)-2,6-diazaspiro[3.3]heptan-2-yl)benzoic acid]", "inhibition at 50 µM": "< 10"}
{"smiles": "O=C(O)c1cccc(N2CC(Oc3ccc(CO)cc3)C2)c1", "note": "[Compound 35, 3-(3-(4-(hydroxymethyl)phenoxy)azetidin-1-yl)benzoic acid]", "inhibition at 50 µM": "10 to 30"}
{"smiles": "Nc1c(C(=O)O)cccc1N1CC(Oc2ccc(CO)cc2)C1", "note": "[Compound 36, 2-amino-3-(3-(4-(hydroxymethyl)phenoxy)azetidin-1-yl)benzoic acid]", "inhibition at 50 µM": "< 10"}
{"smiles": "COC(=O)c1cccc(N2CC(Oc3ccc(CO)cc3)C2)c1-n1cccc1", "note": "[Compound 37, Methyl 3-(3-(4-(hydroxymethyl)phenoxy)azetidin-1-yl)-2-(1H-pyrrol-1-yl)benzoate]", "inhibition at 50 µM": "30 to 50"}
